# From US12090225B2 (Avalyn Pharma Inc., priority 2018, dated 2024)
# Marks after values point to notes of the source that are not given here.
# Columns and labels:
# [1] = cited from earlier work
# [2] = Human inhaled dose projection vs Ofev 150 mg oral; details: human projection
# [3] = Allometric dose scaling from mouse and rat to human; details: for Predicted human half-life: Oral
# [4] = Plasma and lung pharmacokinetics of nintedanib esylate, oral vs intratracheal aerosol; assay type: in vivo, C57BL/6 mice; details: for Lung Cmax / plasma AUC as fraction of the 100 mg/kg oral dose: mice
# [5] = Therapeutic silica model: body and lung weights; assay type: in vivo, C57BL/6 mice; details: oral 30 mg/kg BID and inhaled (IN) 0.021-[…] QD nintedanib HBr
# Description: Briefly, acclimated 20-22 g female C57BL/6 mice were administered silica on day 1 by the intratracheal route. On the tenth day, treatment was initiated with either saline or nintedanib. […] Sham and silica control groups received saline either IN or PO. Five animals were enrolled into sham groups, 10 animals enrolled into each PO dose groups, and 13 animals were enrolled into each IN dosing group. […] Body weights were collected throughout the study, with lung weights at termination. Flexivent was performed to determine elastance (lung function; Table 59). Left lungs were extracted, stained as assessed for parenchymal collagen (Table 60) and α-smooth muscle actin (αSMA; Table 61), while right lungs were assessed for interleukin-1β (IL-1β; Table 62). As expected, all mice administered silica lost weight from days 0 to 4. All silica administered mice began to recover from weight loss at around day 6 and continued recovery reaching their initial weight by day 10 (first therapeutic intervention). […] Neither oral or inhaled (IN) treatment or vehicles altered these characteristics.
# [6] = Formulation development/optimization and long-term stability of nintedanib HBr and HCl formulations
# [7] = 0.5 mg/mL solubility assessment (filtered/unfiltered); assay type: physicochemical; details: 0.5 mg/mL experiment; for pH: listed as HBr
# [8] = Solid state and chemical stability of nintedanib HBr and HCl salts through 6 months; assay type: physicochemical; details: for Weight loss: TGA/DSC
# Excerpt: Table 24 and Table 25 summarize the total impurities (by HPLC), polymorphic form (by X-ray powder diffraction) and, where applicable, weight loss (by TGA/DSC) for both the HCl and HBr salt forms. […] There were no changes in polymorphic form for both salt forms stored at 25 C/60% RH condition.
# [9] = Therapeutic silica model: dose levels and lung pharmacokinetic comparison; assay type: in vivo, C57BL/6 mice; details: Oral Gavage (PO) 30.0 mg/kg; mice
# Description: Briefly, acclimated 20-22 g female C57BL/6 mice were administered silica on day 1 by the intratracheal route. On the tenth day, treatment was initiated with either saline or nintedanib. […] Sham and silica control groups received saline either IN or PO. Five animals were enrolled into sham groups, 10 animals enrolled into each PO dose groups, and 13 animals were enrolled into each IN dosing group. […] All animals were euthanized on day 30d. Body weights were collected throughout the study, with lung weights at termination. Flexivent was performed to determine elastance (lung function; Table 59). Left lungs were extracted, stained as assessed for parenchymal collagen (Table 60) and α-smooth muscle actin (αSMA; Table 61), while right lungs were assessed for interleukin-1β (IL-1β; Table 62).
# Intranasal (IN) dose levels were selected by comparing lung pharmacokinetics following IN dosing to lung pharmacokinetics determined following 30 mg/kg oral gavage (PO).
# [10] = Aqueous solubility assessment of salts; assay type: physicochemical; details: primary screen samples
# [11] = HBr and HCl salts-filter compatibility study; assay type: physicochemical; details: 0.22 μm PTFE filter; 3% PG solution; glass vials, ambient room condition
# Description: HBr and HCl salts-filter compatibility study: this study was conducted to assess the compatibility of the HBr and the HCl salts with various membrane filters. […] The glass vials were stored at ambient room condition and visual appearance was periodically inspected.
# [12] = Therapeutic bleomycin model: dose levels and lung pharmacokinetic comparison; assay type: in vivo, Sprague Dawley rats; details: rat
# [13] = Feasibility assessment of ready-to-use nintedanib HBr, HCl and esylate formulations; assay type: physicochemical; details: NaCl at 30 mM or higher concentrations
# [14] = Citrate buffer formulation; assay type: physicochemical
# [15] = Inhaled pharmacokinetics of nintedanib salt forms (intratracheal); assay type: in vivo, C57BL/6 mice; details: 1 mg/kg (base equivalent) IT, mice; listed as nintedanib hydrobromide
# [16] = Pattern stability screen of potential salts (40° C./75% RH, XRPD); assay type: physicochemical
# Description: XRPD analysis was carried out on a PANalytical X'pert pro, scanning the samples between 3 and 35° 20. The material was gently compressed and loaded onto a multi-well plate with Kapton or Mylar polymer film to support the sample.
# Primary Salt Screening. […] The solvent systems shown in Table were selected for salt screening. For sulfonic acids MEK was used instead of methanol and acetone:water 50:50 (v/v) was used instead of IPA:water to avoid any potential genotoxic impurities. Ca. […] If the acid was insoluble in the selected solvent, a slurry was used. If the acid was a liquid it was added to the API slurry from a stock solution in the allocated solvent. The mixtures of API/counterion/solvent were temperature cycled between ambient and 40° C. in 4 hour cycles for ca. 3 days. Any solids present were isolated and allowed to dry at ambient conditions, for ca. 30 minutes prior to analysis by XRPD. Where solutions were obtained they were evaporated to obtain solid material.
# [17] = 40° C./75% RH, 2 months, listed as Nintedanib HBr salt
# [18] = 40° C./75% RH, 6 months, listed as Nintedanib HBr salt
# [19] = 0.5 mg/mL citrate buffer experiments, listed as HBr
structure (smiles),measurement,setting,value
"COC(=O)c1ccc2c(c1)NC(=O)/C2=C(\Nc1ccc(N(C)C(=O)CN2CCN(C)CC2)cc1)c1ccccc1 [Nintedanib, methyl (3Z)-3-[[4-[methyl-[2-(4-methylpiperazin-1-yl)acetyl]amino]anilino]-phenylmethylidene]-2-oxo-1H-indole-6-carboxylate]",administered nintedanib excreted in the urine,[1]; in vivo,About 80%
same,oral bioavailability,[1]; oral nintedanib,5%
same,device loaded dose resulting in the same lung AUC as the 150 mg oral dose,[2],0.04 mg
same,device loaded dose resulting in the same plasma AUC as a 150 mg oral dose,[2],0.42 mg
same,Predicted human half-life,[3]; line of Mouse Oral 30.0 mg/kg,13.6 h
same,Predicted human half-life,[3]; line of Rat Oral 60.0 mg/kg,13.6 h
same,Predicted human ELF half-life (alpha),"[3]; from Mouse Inhaled […], 21-fold longer than animal lung half-life",84^c min
same,Predicted human ELF half-life (alpha),"[3]; from Mouse Inhaled […], ELF half-life 21-fold longer than animal lung half-life",84^c min
same,Predicted human ELF half-life (alpha),"[3]; from Rat Inhaled 0.05 mg/kg, 21-fold longer than animal lung half-life",294^c min
same,Predicted human ELF half-life (alpha),"[3]; from Rat Inhaled 0.25 mg/kg, 21-fold longer than animal lung half-life",294^c min
same,Predicted human ELF half-life (alpha),"[3]; from Rat Inhaled 0.375 mg/kg, 21-fold longer than animal lung half-life",294^c min
same,less IT nintedanib to achieve the same lung Cmax as oral delivery,[4]; 0.5 mg/kg IT compared to 100 mg/kg oral,about 200 fold
same,Lung Cmax,[4]; 2.5 mg/kg IT,57.5 mcg/gram
same,plasma AUC as fraction of the 100 mg/kg oral dose,[4]; 2.5 mg/kg inhaled (IT),about 1/9
same,plasma AUC as fraction of the 100 mg/kg oral dose,[4]; 10 mg/kg inhaled (IT),⅓
same,Lung Cmax,[4]; 100 mg/kg oral,12.1 mcg/gram
same,lung weights compared to control mice,[5],Neither oral nor inhaled (IN) nintedanib significantly affected lung weights
COC(=O)c1ccc2c(c1)NC(=O)/C2=C(\Nc1ccc(N(C)C(=O)CN2CCN(C)CC2)cc1)c1ccccc1 [Nintedanib HBr],"compatibility with citric acid, fumaric acid",[6],incompatible
same,upper concentration limit (no re-crystallization),[6],1.38 mg/mL
same,concentration for filtered sample compared to unfiltered,[7]; listed as HBr salt,94%
same,pH,[7]; Filtered,5.31
same,pH,[7]; Unfiltered,5.12
same,Polymorphic form,"[8]; 25° C./60 % RH, 1 week",Pattern 1
same,Total impurities,"[8]; 25° C./60 % RH, 1 week, listed as Nintedanib HBr salt",0.40%
same,Polymorphic form,"[8]; 25° C./60 % RH, 2 months",Pattern 1
same,Total impurities,"[8]; 25° C./60 % RH, 2 months, listed as Nintedanib HBr salt",0.42%
same,Polymorphic form,"[8]; 25° C./60 % RH, 4 weeks",Pattern 1
same,Total impurities,"[8]; 25° C./60 % RH, 4 weeks, listed as Nintedanib HBr salt",0.33%
same,Polymorphic form,"[8]; 25° C./60 % RH, 6 months",Pattern 1
same,Total impurities,"[8]; 25° C./60 % RH, 6 months, listed as Nintedanib HBr salt",0.47%
same,Polymorphic form,"[8]; 25° C./60 % RH, Initial",Pattern 1
same,Weight loss,"[8]; 25° C./60 % RH, Initial, listed as Nintedanib HBr salt",0.23%
same,Total impurities,"[8]; 40° C./75% RH, 1 week, listed as Nintedanib HBr salt",0.43%
same,Weight loss,"[8]; 40° C./75% RH, 2 months",4.12%
same,Polymorphic form,[8]; [17],Pattern 4
same,Total impurities,[8]; [17],0.41%
same,Weight loss,"[8]; 40° C./75% RH, 4 weeks",1.33%
same,Weight loss,"[8]; 40° C./75% RH, 6 months",3.72%
same,Polymorphic form,[8]; [18],Pattern 4
same,Total impurities,[8]; [18],0.44%
same,Weight loss,"[8]; 40° C./75% RH, Initial, listed as Nintedanib HBr salt",0.23%
same,Lung AUC,[9],7.4 mg·h/kg
same,Lung Cmax,[9],1.1 µg/g
same,pH (aqueous solubility measurement),[10],3.95
same,solubility,"[10]; water, thermodynamic from solid, read-out: Solubility (aqueous)",~5000 µg/mL
same,visual appearance after filtration,[11],no change in appearance through 1 month
same,Lung AUC,[12]; Oropharyngeal (OP) 0.05 mg/kg,1.6 mg·h/kg
same,Lung Cmax,[12]; Oropharyngeal (OP) 0.05 mg/kg,1.4 µg/g
same,Lung AUC,[12]; Oropharyngeal (OP) 0.25 mg/kg,7.8 mg·h/kg
same,Lung Cmax,[12]; Oropharyngeal (OP) 0.25 mg/kg,7.0 µg/g
same,Lung AUC,[12]; Oropharyngeal (OP) 0.375 mg/kg,11.6 mg·h/kg
same,Lung Cmax,[12]; Oropharyngeal (OP) 0.375 mg/kg,10.5 µg/g
same,compatibility with NaCl,[13],Neither Nintedanib HBr nor Nintedanib HCl is compatible
same,Initial pH,[14]; [19],4.83
same,pH 1 h,[14]; [19],4.82
same,attempt to solubilize in citrate buffer,"[14]; pH 4.8 buffer, ca. 0.5 mg/mL (Nintedanib)",unsuccessful
same,lung half-life,[15],about 4 minutes
same,XRPD pattern after 72 hrs 40° C./75% RH,"[16]; Initial pattern 3, listed as HBr",3
same,XRPD pattern after 72 hrs 40° C./75% RH,[16]; Initial pattern 4,4
same,XRPD pattern after 72 hrs 40° C./75% RH,[16]; Initial pattern 5,5
